Source: publication PMC7155171, “Probing the Open Global Health Chemical Diversity Library for Multistage-Active Starting Points for Next-Generation Antimalarials” (ACS Infectious Diseases, 2020)
Where two headings read alike, the source gives them in different places.

Legend:
P. falciparum Dd2 = assay: SYBR green I asexual blood stage proliferation assay (96 h); type: cell-based, Plasmodium falciparum; conditions: for IC50 / Emax: Plasmodium falciparum
[1] = system: P. falciparum Dd2 (PfLuc) line expressing firefly luciferase, asexual blood stage; assay: microbe, parasite or virus in culture; type: cell-based, Plasmodium falciparum; conditions: Plasmodium falciparum
[2] = DD2, Sybr Green I, 11-pt dose response, 96hr, read-out: CDD P. falciparum Sybr Green I ABS 11-pt Reconfirmation Dose Response (96hr): IC50
[3] = DD2, Sybr Green I, 11-pt dose response, 96hr, read-out: CDD P. falciparum Sybr Green I ABS 11-pt Reconfirmation Dose Response (96hr): Maximum inhibition (%)
[4] = DD2, read-out: CDD P. falciparum Luciferase ABS 11-pt Reconfirmation Dose Response (48hr): IC50 (μM), 11-pt dose response, 48hr
[5] = DD2, 8-pt dose response, 96hr, read-out: CDD P. falciparum Luciferase ABS 8-pt Reconfirmation Dose Response (96hr): IC50
[6] = DD2, 8-pt dose response, 96hr, read-out: CDD P. falciparum Luciferase ABS 8-pt Reconfirmation Dose Response (96hr): Maximum inhibition (%)
[7] = DD2, 11-pt dose response, 48hr, read-out: CDD P. falciparum Luciferase ABS 11-pt Reconfirmation Dose Response (48hr): Maximum inhibition (%)
[8] = DD2, 11-pt dose response, 96hr, read-out: CDD P. falciparum Luciferase ABS 11-pt Reconfirmation Dose Response (96hr): IC50
[9] = DD2, 11-pt dose response, 96hr, read-out: CDD P. falciparum Luciferase ABS 11-pt Reconfirmation Dose Response (96hr): Maximum inhibition (%)
[10] = DD2, 11-pt dose response, 96hr, read-out: P. falciparum Sybr Green I ABS 11-pt Reconfirmation Dose Response (96hr): IC50
[11] = DD2, 11-pt dose response, 96hr, read-out: P. falciparum Sybr Green I ABS 11-pt Reconfirmation Dose Response (96hr): Maximum inhibition (%)
[12] = DD2, read-out: P. falciparum Luciferase ABS 11-pt Reconfirmation Dose Response (48hr): IC50, 11-pt dose response, 48hr
[13] = DD2, 8-pt dose response, 96hr, read-out: P. falciparum Luciferase ABS 8-pt Reconfirmation Dose Response (96hr): IC50
[14] = DD2, 11-pt dose response, 96hr, read-out: P. falciparum Luciferase ABS 11-pt Reconfirmation Dose Response (96hr): IC50
[15] = DD2, 11-pt dose response, 96hr, read-out: P. falciparum Luciferase ABS 11-pt Reconfirmation Dose Response (96hr): Maximum inhibition (%)
[16] = DD2, 8-pt dose response, 96hr, read-out: P. falciparum Luciferase ABS 8-pt Reconfirmation Dose Response (96hr): Maximum inhibition (%)
[17] = DD2, 11-pt dose response, 48hr, read-out: P. falciparum Luciferase ABS 11-pt Reconfirmation Dose Response (48hr): Maximum inhibition (%)

Compound	IC50 (P. falciparum Dd2; [2]) [µM]	Emax (P. falciparum Dd2; [3]) [%]	IC50 [1, 4] [µM]	IC50 [1, 5] [µM]	Emax [1, 6] [%]	Emax [1, 7] [%]	IC50 [1, 8] [µM]	Emax [1, 9] [%]	other results
Cc1ccc2[nH]c(-c3cn(C4CCNCC4)nn3)nc2c1C [DDD01246711]	4.36	79.6	2.21	0.43	94.9	79.2	2.07	99.2	–
Cc1cccc(CN2CCC(Cc3ccccc3F)CC2)n1 [DDD01246731]	–	–	–	–	–	–	–	–	IC50 (P. falciparum Dd2; [10]): 5.16 µM; Emax (P. falciparum Dd2; [11]): 92.8%; IC50 [1, 12]: 2.01 µM; IC50 [1, 13]: 1.12 µM; IC50 [1, 14]: 0.529 µM; Emax [1, 15]: 100%
CCN1CCN(C[C@@H]2CN(c3ncc(Cl)cc3F)C[C@@H]2CO)CC1 [DDD01246828]	1.11	100	1.58	0.63	94.8	98.3	0.961	99.3	–
CN[C@@H](C)C(=O)N(Cc1cccc(C)c1)Cc1ccccc1OC [DDD01246872]	1.07	62.7	1.7	0.47	85.5	61.6	0.75	89.6	–
CN(Cc1ccccc1-n1cccn1)C[C@@H]1CCCN2CCCC[C@H]12 [DDD01246904]	–	–	–	–	–	–	–	–	IC50 (P. falciparum Dd2; [10]): 8.42 µM; Emax (P. falciparum Dd2; [11]): 72.9%; IC50 [1, 12]: > 12.5 µM; IC50 [1, 13]: 1.88 µM; Emax [1, 16]: 85.8%; Emax [1, 17]: 53.8%; IC50 [1, 14]: 3.73 µM; Emax [1, 15]: 73.6%
Cc1cc(-n2cccn2)ccc1CN1CCOCC(CN(C)C)C1 (stereo not drawn) [DDD01247138]	> 4.16	60.8	> 12.5	0.9	83	48	5.64	81.9	–
CC(C)CN1CCCC1c1ccc(C(=O)Nc2cccnc2)s1 (stereo not drawn) [DDD01247321]	4.77	91.6	4.09	0.77	91.9	94.3	2.12	99.9	–
CCN(CC)CCN(C)c1nc(-c2ccc(Cl)cc2)nc2c1CNC2 [DDD01247796]	–	–	–	–	–	–	–	–	IC50 (P. falciparum Dd2; [10]): 4.27 µM; Emax (P. falciparum Dd2; [11]): 89.9%; IC50 [1, 12]: 3.45 µM; IC50 [1, 13]: 1.5 µM; Emax [1, 16]: 94.9%; Emax [1, 17]: 74.2%; IC50 [1, 14]: 2.79 µM; Emax [1, 15]: 99.3%
COc1cccc(CN(C)Cc2[nH]c3ccccc3c2C)c1O [DDD01247848]	1.05	98	1.95	0.44	94.4	95.9	0.908	98.6	–
Cc1cccnc1[C@H](C)Nc1nc(-c2cccnc2)nc2c1CNC2 [DDD01248607]	–	–	–	–	–	–	–	–	IC50 (P. falciparum Dd2; [10]): 3.91 µM; Emax (P. falciparum Dd2; [11]): 91.2%; IC50 [1, 12]: 1.59 µM; IC50 [1, 13]: 1.6 µM; Emax [1, 16]: 92.2%; Emax [1, 17]: 79.2%; IC50 [1, 14]: 1.37 µM; Emax [1, 15]: 99.4%
NC1(C(=O)NCC2CCCN(Cc3ccccc3F)C2)CCCC1 (stereo not drawn) [DDD01249015]	> 4.16	77.3	> 12.5	0.62	89.1	55.5	1.47	87.8	–
c1ccc(Oc2nccc3occc23)c(CN2CCCCC2)c1 [DDD01249169]	7.19	73.8	> 12.5	0.69	87.1	34.1	1.52	78.9	–
CC(C)[C@@H]1CN(C(=O)C2(c3ccccc3)CCN(C)CC2)C[C@H]1N(C)C [DDD01249452]	3.27	87.8	6.23	0.83	90.5	–	2.18	95.6	–
CCc1ccc(CN(CCN(C)C)Cc2ccc(C)s2)nc1 [DDD01249772]	–	–	–	–	–	–	–	–	IC50 (P. falciparum Dd2; [10]): 3 µM; Emax (P. falciparum Dd2; [11]): 93.4%; IC50 [1, 12]: 1.02 µM; IC50 [1, 13]: 1.2 µM; Emax [1, 16]: 90.5%; Emax [1, 17]: 95.2%; IC50 [1, 14]: 0.278 µM; Emax [1, 15]: 101%
CC(C)c1nccc(C2(c3ccccc3Cl)CCNCC2)n1 [DDD01250092]	5.4	74.3	3.82	1.08	86.6	58.4	1.95	90.3	–
Cc1cccc2[nH]c(-c3cn(C4CCNCC4)nn3)nc12 [DDD01250141]	1.48	72.3	3.07	0.59	94.4	66.5	2.16	97.2	–
O=C(c1scc2c1OCCO2)N1CCOC(CCc2ccccc2)C1 (stereo not drawn) [DDD01250278]	1.47	101	1.39	0.55	93.1	97.2	0.767	100	–
CCCn1ccnc1CN1CCCC1c1ccccn1 (stereo not drawn) [DDD01250556]	11.9	68.5	4.66	0.46	–	53.8	1.47	94.8	–
Cc1cc2nc(-c3cn(C4CCNCC4)nn3)[nH]c2cc1C [DDD01250700]	3.23	82	2.08	0.34	95.8	61.5	1.01	98.7	–
CC(C)(C)CNCC1(O)CCCN(Cc2ccccc2F)C1=O (stereo not drawn) [DDD01250810]	4.31	64.2	> 12.5	1.09	82.3	55.3	5.69	80.8	–
CCCn1nccc1C(=O)N1CCN(C2CCc3ccccc3C2)CC1 (stereo not drawn) [DDD01251134, CCCn1nccc1C(=O)N1CCN(CC1)C1CCc2ccccc2C1]	–	–	–	–	–	–	–	–	CDD P. falciparum Sybr Green I ABS Dd2 Dose Response: Maximum measured (%) (P. falciparum Dd2; Dd2, 96 h): 56.3%; IC50 (P. falciparum Dd2; DD2, 96 h, read-out: CDD P. falciparum Sybr Green I ABS Dd2 Dose Response: IC50): > 12.5 µM; IC50 ([1]; DD2, read-out: CDD P. falciparum Luc 11pt dose response (96hr, n=2): IC50 (μM), 96hr, 11-point, n=2): 0.224 µM; IC50 ([1]; DD2, read-out: CDD P. falciparum Luciferase 11pt dose response (48hr, n=2): IC50 (μM), 48hr, 11-point, n=2): 0.205 µM; Emax ([1]; DD2, 48hr, 11-point, read-out: CDD P. falciparum Luciferase ABS 11-pt Reconfirmation Dose Response (48hr): Maximum inhibition (%)): 95.3%; Emax ([1]; DD2, 96hr, 11-point, read-out: CDD P. falciparum Luciferase ABS 11-pt Reconfirmation Dose Response (96hr): Maximum inhibition (%)): 100%
Fc1ccccc1C1(CNC2CCOC3(CCOCC3)C2)CCCC1 (stereo not drawn) [DDD01251139]	0.587	71.8	8.87	0.96	86.2	69.5	1.43	89.3	–
Cc1nc(-c2cc(Cl)cc3c2OC(CN)C3)c[nH]1 (stereo not drawn) [DDD01251343]	> 1.39	–	> 12.5	0.67	–	-0.28	3.7	84.3	–
Cc1nc(C2CCNCC2)cc(N(C)Cc2cc3cc(F)ccc3[nH]2)n1 [DDD01251474]	3.2	90.9	2.3	0.99	93.3	98.2	0.415	100	–
Cc1nccn1CCCN1CCCC(c2ccccc2)C1 (stereo not drawn) [DDD01251840]	0.88	93.4	3.3	0.25	91.7	83.3	0.14	99.5	–
OCc1csc(N2CCCC(COc3cccc(F)c3)C2)n1 (stereo not drawn) [DDD01251951]	–	–	–	–	–	–	–	–	IC50 (P. falciparum Dd2; [10]): 1.63 µM; Emax (P. falciparum Dd2; [11]): 63%; IC50 [1, 12]: > 12.5 µM; IC50 [1, 13]: 1.71 µM; Emax [1, 16]: 79.1%; Emax [1, 17]: 45.9%; IC50 [1, 14]: 3.99 µM; Emax [1, 15]: 82.9%
CN(CCCO)Cc1cc(Cl)ccc1OCC(O)CN1CCCCCC1 (stereo not drawn) [DDD01251957]	2.75	–	2.71	0.99	94.6	99.2	> 1.39	101	–
